Results on one substance are retold here after patent US7402674B2, “7-Phenylamino-4-quinolone-3-carboxylic acid derivatives, process for their preparation and their use as medicaments” (Sanofi-Aventis Deutschland GmbH,, priority 2004, dated 2008).

This test addresses T1, human glycogen phosphorylase a (Homo sapiens, UniProt P06737).
T1 sequence (P06737 1-847): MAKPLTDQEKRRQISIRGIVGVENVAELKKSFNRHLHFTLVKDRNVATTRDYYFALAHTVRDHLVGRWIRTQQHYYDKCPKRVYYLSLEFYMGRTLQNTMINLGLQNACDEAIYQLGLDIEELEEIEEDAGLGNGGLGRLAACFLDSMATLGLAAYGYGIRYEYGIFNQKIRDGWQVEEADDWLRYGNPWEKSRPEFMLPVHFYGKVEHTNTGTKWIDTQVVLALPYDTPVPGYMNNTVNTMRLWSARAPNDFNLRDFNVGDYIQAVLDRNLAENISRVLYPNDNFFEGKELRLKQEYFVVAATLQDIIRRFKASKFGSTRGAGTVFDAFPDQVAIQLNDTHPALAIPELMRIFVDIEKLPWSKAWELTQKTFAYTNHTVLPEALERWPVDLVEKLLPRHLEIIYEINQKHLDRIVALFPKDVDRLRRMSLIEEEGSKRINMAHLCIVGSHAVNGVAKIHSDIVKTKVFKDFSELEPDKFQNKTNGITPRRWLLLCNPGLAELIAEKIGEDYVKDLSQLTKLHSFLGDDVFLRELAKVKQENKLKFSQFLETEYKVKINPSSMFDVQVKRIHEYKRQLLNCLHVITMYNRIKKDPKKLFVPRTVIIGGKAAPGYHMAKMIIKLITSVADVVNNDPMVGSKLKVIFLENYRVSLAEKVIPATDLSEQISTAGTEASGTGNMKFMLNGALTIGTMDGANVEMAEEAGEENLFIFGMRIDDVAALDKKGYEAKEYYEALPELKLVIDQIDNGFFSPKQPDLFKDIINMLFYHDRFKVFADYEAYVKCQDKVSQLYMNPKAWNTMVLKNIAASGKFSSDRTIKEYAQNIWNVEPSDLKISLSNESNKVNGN
The experiment in a line: Glycogen phosphorylase a activity assay. In kind it is biochemical. The note with it: 10 μM test substance; reverse direction (glycogen synthesis from glucose 1-phosphate, liberated inorganic phosphate). Here is the method: Glycogen Phosphorylase a Activity Assay
The effect of compounds on the activity of the active form of glycogen phosphorylase (GPa) was measured in the reverse direction by following the synthesis of glycogen from glucose 1-phosphate by determining the liberation of inorganic phosphate. All the reactions were carried out as duplicate determinations in microtiter plates with 96 wells (Half Area Plates, Costar No 3696), measuring the change in absorption owing to the formation of the reaction product at the wavelength specified hereinafter in a Multiskan Ascent Elisa Reader (Lab Systems, Finland).
In order to measure the GPa enzymic activity in the reverse direction, the general method of Engers et al. (Engers H D, Shechosky S, Madsen N B, Can J Biochem 1970 July; 48(7):746-754) was used to measure the conversion of glucose 1-phosphate into glycogen and inorganic phosphate, with the following modifications: human glycogen phosphorylase a (for example with 0.76 mg of protein/ml (Aventis Pharma Deutschland GmbH), dissolved in buffer solution E (25 mM β-glycerophosphate, pH 7.0, 1 mM EDTA and 1 mM dithiothreitol) was diluted with buffer T (50 mM Hepes, pH 7.0, 100 mM KCl, 2.5 mM EDTA, 2.5 mM MgCl2.6H2O) and addition of 5 mg/ml glycogen to a concentration of 10 μg of protein/ml. […] After incubation at 45° C. for 60 minutes, the absorption at 820 nm was measured. […]

“1-Ethyl-6-(4-ethylphenylamino)-7-methyl-4-oxo-1,4-dihydro-[1,8]naphthyridine-3-carboxylate [Example 1]”: the “% inhibition at 10 μM” value came out at 14%.

A word on the % inhibition: it is the drop in the measured response relative to a control, in per cent.
